Results taken from ChEMBL document CHEMBL1128530, “Alpha- and beta-adrenoceptors: from the gene to the clinic. 1. Molecular biology and adrenoceptor subclassification” (J Med Chem, 1995).

Assays:
[1] = target: T1, Alpha-2C adrenergic receptor (Homo sapiens, UniProt P18825); test: Binding affinity against Alpha-2C adrenergic receptor from human clones.
T1 sequence (P18825 whole entry): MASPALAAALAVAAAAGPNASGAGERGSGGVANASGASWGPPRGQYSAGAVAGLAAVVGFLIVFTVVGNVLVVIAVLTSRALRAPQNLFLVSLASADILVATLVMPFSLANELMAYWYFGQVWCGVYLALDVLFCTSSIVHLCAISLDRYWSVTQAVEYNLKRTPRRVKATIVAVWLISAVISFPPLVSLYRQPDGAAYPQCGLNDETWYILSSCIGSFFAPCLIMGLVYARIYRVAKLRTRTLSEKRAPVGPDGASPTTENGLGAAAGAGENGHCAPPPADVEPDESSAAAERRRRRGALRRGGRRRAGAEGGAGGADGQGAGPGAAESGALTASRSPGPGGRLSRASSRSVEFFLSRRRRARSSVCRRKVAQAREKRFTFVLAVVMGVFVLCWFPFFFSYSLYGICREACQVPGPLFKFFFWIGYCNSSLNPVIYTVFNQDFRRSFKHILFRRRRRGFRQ

[2] = target: T2, Alpha-1D adrenergic receptor (Rattus norvegicus, UniProt P23944); test: Binding affinity against Alpha-1D adrenergic receptor, from rat clones.
T2 sequence (P23944 whole entry): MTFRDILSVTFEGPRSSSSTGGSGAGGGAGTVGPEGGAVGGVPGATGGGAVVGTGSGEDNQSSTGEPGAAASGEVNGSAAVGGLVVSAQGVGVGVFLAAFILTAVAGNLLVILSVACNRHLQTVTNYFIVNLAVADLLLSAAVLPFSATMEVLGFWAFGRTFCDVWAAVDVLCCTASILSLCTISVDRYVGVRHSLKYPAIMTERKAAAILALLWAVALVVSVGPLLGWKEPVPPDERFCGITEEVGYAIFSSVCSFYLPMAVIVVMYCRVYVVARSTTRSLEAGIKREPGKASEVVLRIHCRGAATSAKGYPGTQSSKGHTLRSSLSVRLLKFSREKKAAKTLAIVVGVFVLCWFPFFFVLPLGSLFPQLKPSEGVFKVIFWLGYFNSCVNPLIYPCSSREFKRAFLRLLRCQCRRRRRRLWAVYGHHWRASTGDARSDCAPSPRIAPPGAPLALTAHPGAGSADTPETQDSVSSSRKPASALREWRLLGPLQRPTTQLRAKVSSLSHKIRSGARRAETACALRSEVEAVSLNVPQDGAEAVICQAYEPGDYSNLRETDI

[3] = target: T3, Alpha-1A adrenergic receptor (Rattus norvegicus, UniProt P43140); test: Overall binding displacement in tissues containing only the Alpha-1A adrenergic receptor from rat submaxillary gland
T3 sequence (P43140 whole entry): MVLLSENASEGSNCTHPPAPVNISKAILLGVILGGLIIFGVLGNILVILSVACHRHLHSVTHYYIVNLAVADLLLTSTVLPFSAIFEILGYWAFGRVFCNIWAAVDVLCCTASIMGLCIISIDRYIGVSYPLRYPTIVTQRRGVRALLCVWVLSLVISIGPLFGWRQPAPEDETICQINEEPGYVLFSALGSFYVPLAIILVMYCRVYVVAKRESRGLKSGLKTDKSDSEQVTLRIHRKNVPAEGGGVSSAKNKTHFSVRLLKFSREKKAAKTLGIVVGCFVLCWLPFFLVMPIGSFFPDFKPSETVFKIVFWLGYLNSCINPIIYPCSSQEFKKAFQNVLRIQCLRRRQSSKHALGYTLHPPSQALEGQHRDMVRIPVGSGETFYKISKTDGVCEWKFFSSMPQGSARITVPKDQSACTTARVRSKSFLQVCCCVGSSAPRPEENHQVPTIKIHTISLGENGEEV

[4] = target: T4, Alpha-1A adrenergic receptor (Homo sapiens, UniProt P35348); test: The compound was tested for binding affinity against Alpha-1A adrenergic receptor from human clones.
T4 sequence (P35348 whole entry): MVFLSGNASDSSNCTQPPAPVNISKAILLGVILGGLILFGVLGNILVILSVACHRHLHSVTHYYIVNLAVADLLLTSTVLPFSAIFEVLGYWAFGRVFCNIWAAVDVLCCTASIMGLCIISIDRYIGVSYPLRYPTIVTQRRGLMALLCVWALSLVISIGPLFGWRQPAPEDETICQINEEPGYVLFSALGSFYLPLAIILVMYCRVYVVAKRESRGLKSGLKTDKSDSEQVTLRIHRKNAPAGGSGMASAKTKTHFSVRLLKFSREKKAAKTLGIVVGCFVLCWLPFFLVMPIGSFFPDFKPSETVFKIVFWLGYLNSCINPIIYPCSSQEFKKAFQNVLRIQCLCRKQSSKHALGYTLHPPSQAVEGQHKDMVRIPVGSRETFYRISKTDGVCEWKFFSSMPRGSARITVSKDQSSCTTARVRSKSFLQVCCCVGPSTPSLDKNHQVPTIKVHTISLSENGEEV

[5] = target: T5, Alpha-2B adrenergic receptor (Homo sapiens, UniProt P18089); test: Binding affinity against Alpha-2B adrenergic receptor from human clones.
T5 sequence (P18089 whole entry): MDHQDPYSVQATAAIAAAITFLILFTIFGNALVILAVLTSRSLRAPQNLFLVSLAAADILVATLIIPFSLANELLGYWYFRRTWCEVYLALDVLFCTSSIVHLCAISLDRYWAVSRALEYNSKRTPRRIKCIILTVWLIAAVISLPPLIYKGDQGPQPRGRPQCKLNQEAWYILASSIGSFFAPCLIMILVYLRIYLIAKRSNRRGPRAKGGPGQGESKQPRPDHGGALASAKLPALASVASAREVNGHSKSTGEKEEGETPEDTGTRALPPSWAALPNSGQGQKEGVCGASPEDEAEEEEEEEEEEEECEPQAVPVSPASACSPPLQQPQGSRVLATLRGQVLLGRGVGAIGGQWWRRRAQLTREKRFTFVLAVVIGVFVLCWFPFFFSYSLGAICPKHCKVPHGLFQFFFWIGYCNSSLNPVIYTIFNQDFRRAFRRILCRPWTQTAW

| Compound | Ki [1] [nM] | Ki [2] [nM] | Ki [3] [nM] | Ki [4] [nM] | Ki [5] [nM] |
| --- | --- | --- | --- | --- | --- |
| COc1ccccc1N1CCN(CCCNc2c(C)c(=O)n(C)c(=O)n2C)CC1 | 131 | 186 | 0.7 | 2.3 | 406 |
| COc1cccc(OC)c1OCCNCC1COc2ccccc2O1 (stereo not drawn) | 0.8 | 1.2 | 0.08 |  | 28 |
| O=C(NC1CCN(CCc2c[nH]c3ccccc23)CC1)c1ccccc1 [INDORAMIN] | 476 | 611 |  | 3.7 | 528 |
